33 compounds from patent US20080311076A1, “Morpholinylanilinoquinazoline Derivatives For Use As Antiviral Agents” (ARROW THERAPEUTICS LIMITED, priority 2004, published 2008) can be followed below.

This assay deals with HCV replicon cells Huh 9B. The assay can be described thus: HCV replicon assay (luciferase) in Huh 9B replicon cells. It counts as cell-based. Conditions: Hepatitis C virus; concentration reducing replicon level (luciferase activity) by 50% vs untreated cell control; 72 h incubation. How it is done:
HCV replicon cells Huh 9B (ReBlikon), containing the firefly luciferase—ubiquitin—neomycin phosphotransferase fusion protein and EMCV-IRES driven HCV polyprotein with cell culture adaptive mutations.
Cells were cultured at 37° C. in a 5% CO2 environment and split twice a week on seeding at 2×10E6 cells/flask on day 1 and 1×10E6 3 days later. Some 0.25 mg/ml G418 was added to the culture medium (125 ul per 25 ml) but not the assay medium.
The culture medium consisted of DMEM with […] glucose and glutamax (Gibco 61965-026) supplemented with 1× non-essential amino acids, penicillin (100 IU/ml)/streptomycin (100 μg/ml), FCS (10%, 50 ml) and 1 mg/ml G418 (Invitrogen cat no 10131-027) & 10% foetal calf serum.
A flask of cells was trypsinised and a cell count carried out. Cells were diluted to 100,000 cells/ml and 100 μl of this used to seed one opaque white 96-well plate (for the replicon assay) and one flat-bottomed clear plate (for the tox assay) for every seven compounds to be tested for IC50. Wells G12 and H12 were left empty in the clear plate as the blank. Plates were then incubated at 37° C. in a 5% CO2 environment for 24 h.
On the following day compound dilutions are made up in medium at twice their desired final concentration in a clear round bottomed plate. All dilutions have a final DMSO concentration of 1%.
Once the dilution plate had been made up, controls and compounds were transferred to the assay plate (containing the cells) at 100 μl/well in duplicate plates.
Exception: in the white (replicon) plate, no compound was added to wells A1 and A2 and 100 μl of 1% DMSO was added to these instead. In the clear (Tox) plate, wells E12 & F12 only contained the DMSO control. Plates were then incubated at 37° C. with 5% CO2 for 72 h.
At the end of the incubation time, the cells in the white plate were harvested by washing with 200 μl/well of warm (37° C.) PBS and lysed with 20 μl cell culture lysis buffer (Promega). After 5 min incubation @ RT, luciferin solution was added to the luciferase assay buffer (LARB at 200 μl per 10 ml LARB. The M injector of the microplate luminometer (Lmax, Molecular Devices) was primed with […] injections. Plate were inserted into the luminometer and 100 μl luciferase assay reagent was added by the injector on the luminometer. The signal was measured using a 1 second delay followed by a 4 second measurement programme. The IC50, the concentration of the drug required for reducing the replicon level by 50% in relation to the untreated cell control value, can be calculated from the plot of the percentage reduction of the luciferase activity vs. drug concentration.
In general terms: In antiviral work, replicon cells carry a viral genome segment that copies itself.
Broadly, the IC50 is the concentration at which inhibition is half-maximal. A lower IC50 goes with inhibition by little substance. With `Brc1ccc2ncnc(Nc3ccc(N4CCOCC4)cc3)c2c1` [Example 1, (6-Bromo-quinazolin-4-yl)-(4-morpholin-4-yl-phenyl)-amine], the IC50 is less than 5 µM.
The compound `Ic1ccc2ncnc(Nc3ccc(N4CCOCC4)cc3)c2c1` [Example 2, (6-Iodo-quinazolin-4-yl)-(4-morpholin-4-yl-phenyl)-amine] showed an IC50 of less than 1 µM.
Consider `c1coc(-c2ccc3ncnc(Nc4ccc(N5CCOCC5)cc4)c3c2)c1` [Example 5, (6-Furan-2-yl-quinazolin-4-yl)-(4-morpholin-4-yl-phenyl)-amine], for which the IC50 was less than 1 µM.
In turn, `c1nc(Nc2ccc(N3CCOCC3)cc2)c2cc(-c3ccc(C4OCCO4)o3)ccc2n1` [Example 6, [6-(5-[1,3]Dioxolan-2-yl-furan-2-yl)quinazolin-4-yl]-(4-morpholin-4-yl-phenyl)-amine] returned a concentration for half-maximal inhibition (IC50) of less than 5 µM.
As for `O=Cc1ccc(-c2ccc3ncnc(Nc4ccc(N5CCOCC5)cc4)c3c2)o1` [Example 7, 5-[4-(4-Morpholin 4-yl-phenylamino)-quinazolin-6-yl]-furan-2-carbaldehyde], the IC50 was less than 1 µM.
In turn, `OCc1ccc(-c2ccc3ncnc(Nc4ccc(N5CCOCC5)cc4)c3c2)o1` [Example 8, {5-[4-(4-morpholin-4-yl-phenylamino)-quinazolin-6-yl]-furan-2-yl}-methanol] gave an IC50 of less than 1 µM.
`CS(=O)(=O)CCNCc1ccc(-c2ccc3ncnc(Nc4ccc(N5CCOCC5)cc4)c3c2)o1` [Example 9, (6-{5-[(2-Methanesulfonyl-ethylamino)-methyl]-furan-2-yl}-quinazolin-4-yl)-(4-morpholin-4-yl-phenyl)-amine] returned an IC50 of less than 1 µM.
As for `CN1CCN(Cc2ccc(-c3ccc4ncnc(Nc5ccc(N6CCOCC6)cc5)c4c3)o2)CC1` [Example 11, {6-[5-(4-Methyl-piperazin-1-ylmethyl)-furan-2-yl]-quinazolin-4-yl}-(4-morpholin-4-yl-phenyl)-amine], the figure is less than 5 µM.
`c1nc(Nc2ccc(N3CCOCC3)cc2)c2cc(-c3ccc(CN4CCOCC4)o3)ccc2n1` [Example 12, [6-(5-Morpholin-4-ylmethyl-furan-2-yl)-quinazolin-4-yl]-(4-morpholin-4-yl-phenyl)-amine] yielded an IC50 of less than 1 µM.
In turn, `CN(C)Cc1ccc(-c2ccc3ncnc(Nc4ccc(N5CCOCC5)cc4)c3c2)o1` [Example 13, [6-(5-Dimethylaminomethyl-furan-2-yl)-quinazolin-4-yl]-(4-morpholin-4-yl-phenyl)-amine] yielded an IC50 of less than 5 µM.
For `CNCc1ccc(-c2ccc3ncnc(Nc4ccc(N5CCOCC5)cc4)c3c2)o1` [Example 14, [6-(5-Methylaminomethyl-furan-2-yl)-quinazolin-4-yl]-(4-morpholin4-yl-phenyl)-amine] the value was less than 25 µM; for `c1csc(-c2ccc3ncnc(Nc4ccc(N5CCOCC5)cc4)c3c2)c1` [Example 15, (4-Morpholin-4-yl-phenyl)-(6-thiophen-2-yl-quinazolin-4-yl)-amine], less than 1 µM; for `Cc1ccccc1-c1ccc2ncnc(Nc3ccc(N4CCOCC4)cc3)c2c1` [Example 17, (4-Morpholin-4-yl-phenyl)-(6-o-tolyl-quinazolin-4-yl)-amine], less than 5 µM.
Take `c1csc(-c2ccc3ncnc(Nc4ccc(N5CCOCC5)cc4)c3c2)n1` [Example 18, (4-Morpholin-4-yl-phenyl)-(6-thiazol-2-yl-quinazolin-4-yl)-amine]: the IC50 was less than 1 µM.
For `COc1ncc(-c2ccc3ncnc(Nc4ccc(N5CCOCC5)cc4)c3c2)cn1` [Example 19, [6-(2-Methoxy-pyrimidin-5-yl)-quinazolin-4-yl]-(4-morpholin-4-yl-phenyl)-amine] the value was less than 1 µM; for `Cc1csc(-c2ccc3ncnc(Nc4ccc(N5CCOCC5)cc4)c3c2)c1` [Example 20, [6-(4-Methyl-thiophen-2-yl)-quinazolin-4-yl]-(4-morpholin-4-yl-phenyl)-amine], less than 5 µM; for `O=C(O)c1ccc(-c2ccc3ncnc(Nc4ccc(N5CCOCC5)cc4)c3c2)s1` [Example 21, 5-[4-(4-Morpholin-4-yl-phenylamino)-quinazolin-6-yl]-thiophene-2-carboxylic acid], less than 25 µM.
For the compound `CS(=O)(=O)c1ccc(-c2ccc3ncnc(Nc4ccc(N5CCOCC5)cc4)c3c2)cc1` [Example 22, [6-(4-Methanesulfonyl-phenyl)-quinazolin-4-yl]-(4-morpholin-4-yl-phenyl)-amine], the IC50 was less than 1 µM.
`c1cc(-c2ccc3ncnc(Nc4ccc(N5CCOCC5)cc4)c3c2)cc(-n2cccn2)c1` [Example 23, (4-Morpholin-4-yl-phenyl)-[6-(3-pyrazol-1-yl-phenyl)-quinazolin-4-yl]-amine] showed an IC50 of less than 1 µM.
In the case of `N#Cc1ccc(-c2ccc3ncnc(Nc4ccc(N5CCOCC5)cc4)c3c2)cc1` [Example 24, 4-[4-(4-Morpholin-4-yl-phenylamino)-quinazolin-6-yl]-benzonitrile], the IC50 was less than 5 µM.
As to `O=C(Nc1ccc2ncnc(Nc3ccc(N4CCOCC4)cc3)c2c1)c1ccco1` [Example 25, Furan-2-carboxylic acid [4-(4-morpholin-4-yl-phenylamino)-quinazolin-6-yl]-amide], the IC50 was less than 25 µM.
For `COc1ccc(CNC(=O)c2ccc3ncnc(Nc4ccc(N5CCOCC5)cc4)c3c2)cc1` [Example 26, 4-(4-Morpholin-4-yl-phenylamino)-quinazoline-6-carboxylic acid 4-methoxy-benzylamide] the value was less than 5 µM; for `CCOC(=O)c1cccc(NC(=O)c2ccc3ncnc(Nc4ccc(N5CCOCC5)cc4)c3c2)c1` [Example 27, 3-{[4-(4-Morpholin-4-yl-phenylamino)-quinazoline-6-carbonyl]-amino}-benzoic acid ethyl ester], less than 5 µM.
`COc1cccc(CNC(=O)c2ccc3ncnc(Nc4ccc(N5CCOCC5)cc4)c3c2)c1` [Example 28, 4-(4-Morpholin-4-yl-phenylamino)-quinazoline-6-carboxylic acid 3-methoxy-benzylamide] had an IC50 of less than 5 µM.
`Cc1ccc(CNC(=O)c2ccc3ncnc(Nc4ccc(N5CCOCC5)cc4)c3c2)cc1` [Example 29, 4-(4-Morpholin-4-yl-phenylamino)-quinazoline-6-carboxylic acid 4-methyl-benzylamide] had an IC50 of less than 5 µM.
In turn, `CNC(=O)c1ccc2ncnc(Nc3ccc(N4CCOCC4)cc3)c2c1` [Example 30, 4-(4-Morpholin-4-yl-phenylamino)-quinazoline-6-carboxylic acid methylamide] displayed an IC50 of less than 5 µM.
As for `CN(C)C(=O)c1ccc2ncnc(Nc3ccc(N4CCOCC4)cc3)c2c1` [Example 31, 4-(4-Morpholin-4-yl-phenylamino)-quinazoline-6-carboxylic acid dimethylamide], the IC50 was less than 5 µM.
Regarding `CCNC(=O)c1ccc2ncnc(Nc3ccc(N4CCOCC4)cc3)c2c1` [Example 32, 4-(4-Morpholin-4-yl-phenylamino)-quinazoline-6-carboxylic acid ethylamide], the IC50 is less than 5 µM.
`O=C(Nc1ccc(-c2ccc3ncnc(Nc4ccc(N5CCOCC5)cc4)c3c2)cc1)OCc1ccccc1` [Example 34, {4-[4-(4-Morpholin-4-yl-phenylamino)-quinazolin-6-yl]-phenyl}-carbamic acid benzyl ester]: the IC50 is less than 1 µM.
`CC(=O)Nc1ccc(-c2ccc3ncnc(Nc4ccc(N5CCOCC5)cc4)c3c2)cc1` [Example 35, N-{4-[4-(4-Morpholin 4-yl-phenylamino)-quinazolin-6-yl]-phenyl}-acetamide] registered a concentration for half-maximal inhibition (IC50) of less than 1 µM.
Compound `CC(C)(C)OC(=O)Nc1ccc(-c2ccc3ncnc(Nc4ccc(N5CCOCC5)cc4)c3c2)cc1` [Example 36, {4-[4-(4-Morpholin-4-yl-phenylamino)-quinazolin-6-yl]-phenyl}-carbamic acid tert-butyl ester] returned a half-inhibitory concentration (IC50) of less than 1 µM.
`CS(=O)(=O)Nc1cccc(-c2ccc3ncnc(Nc4ccc(N5CCOCC5)cc4)c3c2)c1` [Example 38, N-{3-[4-(4-Morpholin-4-yl-phenylamino)-quinazolin-6-yl]-phenyl}-methanesulfonamide] registered an IC50 of less than 5 µM.
The compound `FC(F)(F)c1cc(N2CCOCC2)ccc1Nc1ncnc2ccc(I)cc12` [Example 39, (6-Iodo-quinazolin-4-yl)-(4-morpholin-4-yl-2-trifluoromethyl-phenyl)-amine] came in with an IC50 of less than 1 µM.
